Assay results reported in patent US9597318B2, “2-oxothiazole compounds and method of using same for chronic inflammatory disorders” (Avexxin AS, priority 2009, dated 2017).
Where two headings read alike, the source gives them in different places.

Columns and labels:
group IVa PLA2 (cPLA2) = group IVa PLA2 (cPLA2) (Homo sapiens (Human), UniProt P47712); assay: In vitro cPLA2 enzyme activity assay; format: biochemical
Method: Some of the compounds above were tested using an in vitro cPLA2 enzyme activity assay.
Assay for cPLA2 activity was performed by the use of sonicated vesicles of 1-palmitoyl-2-arachidonoyl-sn-glycerol-3-phosphorylcholine (100 μM) containing 100,000 cpm of 1-palmitoyl-2-[1 14C]arachidonoylsn-glycerol-3-phosphorylcholine in 100 mM Hepes, pH 7.5, 80 μM Ca2, 2 mM dithiothreitol, and 0.1 mg/ml BSA as described. Following a […] incubation at 37° C., the reaction was terminated (derived from Wijkander et al). The lower phase was separated by thin layer chromatography, and the spot corresponding to free [1-14C]arachidonic acid was visualized by digital imaging and quantified with a PhosphorImager (Fuji Instruments). The source of cPLA2 enzyme was recombinant overexpression of the human gene for group IVa PLA2 in baculovirus insect cell expression system, as described in Abdullah et al. • Wijkander, J., and Sundler, R. (1991) Eur. J. Biochem. 202, 873-880 • Abdullah, K., et al. (1995) Human cytosolic phospholipase A2 expressed in insect cells is extensively phosphorylated on Ser-505. Biochim Biophys Acta. 1995 May 11; 1244(1):157-64.

SW982 cells = assay: AA release assay in SW982 cells, IL-1B stimulation; format: cell-based; details: Homo sapiens
Method: (§1) The Cell Culture SW982 model cell line at a confluent or spheroid state (Wada Y, 2005) was used since gene expression and generation of proinflammatory cytokines resemble RA-derived synovial fibroblast-like cells.
[…] […] IC50 is evaluated from dose-response inhibitions curves.

PGE2 = assay: PGE2-assay (EIA kit detection); format: cell-based
Method: as §1
Samples and controls were slowly thawed and diluted (between 1:1 and 1:2500) in the standard diluent. The maximal dilution was 1:10 for one step. That is why several intermediate dilutions were prepared. In the beginning all values were determined from duplicates. After having minimized technical errors, samples were only analyzed as individuals. All further steps, except for some minor corrections, were performed according to the manufacturer's recommendations as can be found in the manual of the EIA kit. In order to optimize the results, the incubation time of the alkaline phosphatase substrate was prolonged by 15 minutes. During the incubation, the plates were kept in the dark. An example of the arrangements of the samples and controls is illustrated in the appendix. The read-out was carried out with a Multiscan plate reader (Ascent Labsystems) at wavelengths of 414 and 595 nm after 10 seconds shaking at 120 rpm. The corresponding software to obtain the data was the Ascent software for Multiscan, Version 2.4.1.
Data were processed using Microsoft Office Excel 2003 and SigmaPlot 10.0.

[1] = recombinant human group IVa PLA2, vesicle assay, 37° C., read-out: Enzyme Assay IC 50
[2] = 1 h preincubation, IL-1B stimulation, time not given
[3] = read-out: cPLA2 in vitro assay IC50

group IVa PLA2 (cPLA2), sequence (P47712 whole entry): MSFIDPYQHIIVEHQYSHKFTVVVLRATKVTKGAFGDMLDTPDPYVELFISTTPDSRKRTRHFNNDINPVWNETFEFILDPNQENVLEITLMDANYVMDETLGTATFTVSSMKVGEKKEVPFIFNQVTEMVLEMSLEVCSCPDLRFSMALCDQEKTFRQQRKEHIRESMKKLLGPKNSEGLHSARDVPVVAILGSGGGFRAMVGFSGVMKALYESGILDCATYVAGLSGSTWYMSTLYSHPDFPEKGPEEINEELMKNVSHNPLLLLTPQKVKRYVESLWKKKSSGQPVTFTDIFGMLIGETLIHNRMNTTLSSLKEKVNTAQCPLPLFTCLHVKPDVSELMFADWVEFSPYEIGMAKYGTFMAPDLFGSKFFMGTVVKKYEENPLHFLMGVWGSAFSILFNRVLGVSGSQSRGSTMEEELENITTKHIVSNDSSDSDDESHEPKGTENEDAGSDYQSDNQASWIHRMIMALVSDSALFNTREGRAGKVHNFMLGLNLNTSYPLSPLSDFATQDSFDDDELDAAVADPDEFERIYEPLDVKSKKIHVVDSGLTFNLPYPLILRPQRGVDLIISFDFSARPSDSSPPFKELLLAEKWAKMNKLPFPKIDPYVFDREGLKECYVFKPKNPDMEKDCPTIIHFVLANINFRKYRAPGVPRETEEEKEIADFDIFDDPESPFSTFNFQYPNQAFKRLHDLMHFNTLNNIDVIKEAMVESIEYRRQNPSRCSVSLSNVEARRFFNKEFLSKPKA

IC50 (SW982 cells; [2])	Compound	IC50 (group IVa PLA2 (cPLA2); [1])	IC50 (group IVa PLA2 (cPLA2); [3])	inhibition at 10 µM (PGE2)	inhibition at 30 µM (PGE2)	further results
	O=C(CCCCc1ccccc1)c1nccs1 [GK147, 5-Phenyl-1-(thiazol-2-yl)pentan-1-one]	3.05 µM				
5.8 µM	CCCCCCOc1ccc(CCC(=O)c2nccs2)cc1 [GK150, 3-(4-(Hexyloxy)phenyl)-1-(thiazol-2-yl)propan-1-one]					
	CCOC(=O)c1csc(C(=O)CCCCc2ccccc2)n1 [GK152, Ethyl 2-(5-phenylpentanoyl)thiazole-4-carboxylate]		> 5 µM	30%	31%	IC50 (SW982 cells; (2 h)): 7.4 µM; IC50 (SW982 cells; (4 h)): > 25 µM; inhibition at 0.1 µM (PGE2; 0.1 uM): 41%; inhibition at 3 µM (PGE2): 38%
	CCCCCCCCc1ccc(OCCCC(=O)c2nccs2)cc1 [GK154, 4-(4-Octylphenoxy)-1-(thiazol-2-yl)butan-1-one]	3.65 µM				
	CCCCCCOc1ccc(CCCC(F)C(=O)c2nccs2)cc1 (stereo not drawn) [GK156, 2-Fluoro-5-(4-(hexyloxy)phenyl)-1-(thiazol-2-yl)pentan-1-one]	3.7 µM				
	O=C(CCCCc1ccccc1)c1nc2ccccc2s1 [GK159]		> 5 µM	23%	10%	IC50 (SW982 cells; (2 h)): < 2 µM; IC50 (SW982 cells; (4 h)): ~25 µM; inhibition at 0.3 µM (PGE2; 0.3 uM): 76%; inhibition at 3 µM (PGE2): 18%
4.9 µM	CCC(=O)c1nc(C(=O)O)cs1 [GK160]		7.2 µM	12%	30%	
1.4 µM	O=C(CCCCc1ccc2ccccc2c1)c1nc2ccccc2s1 [GK181]			16.3%	22.5%	
2.8 µM	CCc1ccc(OCC(=O)c2nccs2)cc1 [GK185]		2 µM			
